Test results from patent US20190046481A1, “TRANSDERMAL FORMULATIONS FOR DELIVERY OF PROPIONIC AND ACETIC ACID NSAIDS, AND THEIR USE IN THE TREATMENT OF NSAID-RESPONSIVE DISEASES AND CONDITIONS” (DELIVRA INC., priority 2015, published 2019).
Read-outs that look alike come from different tables or passages of the source.

Experiments:
[1] = test system: aged Beagle dogs with radiographic evidence of osteoarthritis; assay: Modified canine brief pain inventory questionnaire in aged dogs with osteoarthritis; format: in vivo; conditions: test day 5; for cumulative pain score compared to baseline: about 1.5 hours after administration
Method: This study used a blinded parallel group design with a total of eighteen (18) aged Beagle dogs greater than six years of age with radiographic evidence of osteoarthritis. The dogs were randomized to three groups of six subjects balanced on baseline pain levels determined using a modified canine brief pain inventory questionnaire in which a technician evaluated levels of pain and functional impairment in a standardized obstacle test over two baseline days. […] Dogs were tested on the modified canine brief pain inventory questionnaire daily over 7 days approximately 1.5 hours following administration of their respective treatments. Over the subsequent five test days, the same treatment doses were administered twice daily (i.e., doubling the daily dose), except that a loading dose was administered in the morning of the first day, which consisted of twice the daily dose level used initially (i.e., triple initial dose on the first day). The technicians assessing pain and function with the questionnaire were blinded to treatment conditions. Twice daily observations were conducted for the duration of the study.
Transdermal and oral naproxen were evaluated compared to a negative control as described in the Study Design. […] Questionnaire testing occurred approximately 1.5 hours following the morning dose administration of the test compounds. The two most affected joints of each subject were shaved prior to the first day of drug administration in all treatment groups.
Subjects were assessed on a pain questionnaire once daily on test days. […] Specifically, the ability of each dog to walk, trot, gallop, rear, jump over a low obstacle, climb and descend stairs, jump down from a perch and general activity was evaluated in addition to a subjective evaluation of pain during evaluation of each function. […]
The data consisted of whole number scored for 13 questions assessing measures of both pain (0-2) and functional impairment (0-4), as well as an overall pain and function question (0-4). A cumulative pain and functional impairment score was calculated from all […] for both the pain and functional impairment measures on a daily basis as applicable. […] Subsequently, difference from the baseline scores were calculated for the fifth test day at each dose and subjected to a similar RMANOVA analysis. […]
The dogs were randomized to three groups of six subjects based on mean baseline pain levels determined using a modified canine brief pain inventory questionnaire over two baseline days. […] Pain was evaluated using the pain questionnaire, which was administered approximately 1.5 hours following administration of their respective treatments. […] Data from the fifth treatment day at each dose compared to baseline was statistically evaluated.

[2] = Naproxen quantification in canine sera (LC-MS/MS); format: in vivo, Beagle dogs; conditions: both sexes, Beagle, dog, serum, oral, mean+/−SEM
Method: A 1 mg/mL stock solution of d3-naproxen was prepared in dimethyl sulfoxide. […] A solution of 200 ng/mL of d3-naproxen was prepared by adding 4 μL of 50 μg/mL solution of d3-naproxen to 996 μL methanol/water (70:30) (stock solution B).
Isocratic chromatographic separation was performed on a Zorbax Eclipse XDB-C18 column (150×4.6 mm I.D., 5 μm particle size, Agilent, Santa Clara, Calif., USA, SN USKH095544) with a XDB-C18 guard column (12.5×4.6 mm I.D., μm particle size, Agilent, Santa Clara, Calif., USA, SN USLE034730) using a mobile phase of acetonitrile/0.02 M NH4OAc (pH=4.00) (70:30) at a flow rate of 0.500 mL/min for 6 min. […] There was a post time of 0.10 min. The column temperature was 40° C. and the autosampler temperature was maintained at 4° C. The sample injection volume was 10 μL. A 4000 Q trap from AB Sciex Instruments equipped with an electrospray ionization (ES1) was used in the negative ion mode with multiple reaction monitoring (MRM) for the quantitative analysis. Nitrogen was used as the collision gas and the curtain gas. […] Analytical data were acquired and quantification processing was performed by using Analyst software.
Six aged Beagle dogs (>6 years) of both sexes with quantified radiographic evidence of osteoarthritis were used for the study. […]

in vivo [3] = conditions: for concentration at 7 days / Synovial Fluid drug concentration: dog, in vivo
Excerpt: Baseline synovial fluid was collected from untreated canine subjects. […] Synovial fluid was collected from stifle or shoulder joints.
Error bars depicted standard error of the mean.

[4] = for Serum drug concentration: dog, in vivo
Excerpt: (§1) 12 dogs with radiographic evidence of osteoarthritis (OA) were utilized to compare the concentration of ibuprofen in both blood and synovial fluid following transdermal delivery of ibuprofen formulated in base formulation and oral delivery in capsules. The 12 dogs were randomly divided into two groups of six subjects; one group received the oral positive treatment control and the other group received the transdermal treatment. The treatment cycle consisted of six days twice daily followed by a period of seven days devoid of treatment. Blood and synovial fluid samples (from both stifles and shoulders) were collected on the last (sixth) day of drug application and on the last (seventh) day of the washout period.
(§2) Test article: 1.5% (w/w) ibuprofen in base formulation (4); ˜1 g gel per shoulder joint twice daily (i.e. 15 mg ibuprofen per shoulder joint twice daily). Control article: base formulation; ˜1 g gel per shoulder joint twice daily. Positive Control: 30 mg ibuprofen in capsule PO twice daily.
(§3) Whole blood and synovial fluid samples were collected from the dogs 60 mins post treatment on the 7th day, and additional samples were collected after a 7 day washout. Baseline synovial fluid was collected from untreated canine subjects. Synovial fluid was collected under sedation (medetomidine (0.01 mg/kg) and butorphenol (0.1 mg/kg) IV). The fluid was collected by arthrocentesis into the joint following surgical preparation of the area. Synovial fluid was collected from stifle or shoulder joints.

in vivo [5] = conditions: dog
Excerpt: as §1, §2, §3

[6] = Dose 2 (high dose, twice daily)

Compound	cumulative pain score difference from mean baseline compared to negative control ([1]; Dose 1 (low dose, once daily))	cumulative pain score compared to baseline ([1]; Dose 1 (low dose, once daily))	cumulative pain score difference from mean baseline compared to negative control [1, 6]	cumulative pain score compared to baseline [1, 6]	concentration at 60 min ([2]; capsule PO once daily for seven days, 60 minutes post administration) [µg/mL]	concentration at 7 days ([2]; seven day washout) [ng/mL]	concentration at 7 days (in vivo [3]) [ng/mL]	Synovial Fluid drug concentration (in vivo [3]; 60 min)	Synovial Fluid drug concentration (in vivo [3]; 7 days)	concentration at 7 days (in vivo [3]; po) [ng/mL]	Synovial Fluid drug concentration (in vivo [3]; po, 60 min)	Synovial Fluid drug concentration (in vivo [3]; po, 7 days)	reduction of drug by a one week washout period (in vivo [3]; synovial fluid, oral or transdermal) [%]	Serum drug concentration ([4]; 60 min)	Serum drug concentration ([4]; 7 days)	Serum drug concentration ([4]; po, 60 min)	Serum drug concentration ([4]; po, 7 days)	reduction of circulating drug by a one week washout period ([4]; serum, oral or transdermal) [%]	concentration at 7 days (in vivo [5]) [ng/mL]	concentration at 7 days (in vivo [5]; po) [ng/mL]
COc1ccc2cc([C@H](C)C(=O)O)ccc2c1 [oral naproxen, Naproxen]	reduced pain at only the low dose	significant decrease from baseline	reduced pain at only the low dose	reduced measures of pain at only the low dose	102	16200	–	–	–	–	–	–	–	–	–	–	–	–	–	–
CC(C)Cc1ccc(C(C)C(=O)O)cc1 (centres unmarked) [Ibuprofen]	–	–	–	–	–	–	58.5	1,711 (±828) ng/mL	31 (±21)^□ ng/mL	8.5	2,065 (±1,070) ng/mL	5 (±3)^□ ng/mL	> 95	2,904 (±1,212) ng/mL	59 (±38)^□ ng/mL	15,420 (±3,450) ng/mL	9 (±4)^□ ng/mL	> 95	58.5	8.5
